Results as given in patent publication US20260000670A1 (priority 2022, published 2026).

Columns and labels:
[1] = test system: mice; experiment: hFIX transgene expression after re-dosing, 1-week vs 2-week dasatinib treatment; format: in vivo
Protocol: FIG. 7: In vivo study to assess the impact of prolonging the dasatinib treatment. All mouse groups, except Group 1, were immunized on day 1 with an i.v. injection of AAV8-hSeap (1e12 vg/kg). Four groups received an i.v. injection of AAV8-FactorIX (3e13 vg/kg) on day 43. Concomitantly to the first AAV administration, Groups 3 and 4 were treated with dasatinib for either 1 or 2 weeks, respectively. Dasatinib was administered at the dose of 50 mg/kg per oral gavage, twice per day and starting 1 hr before the first AAV treatment.
FIG. 10: Prolongation of dasatinib treatment upon first AAV8 dosing improves transgene expression after readministration. In the experiment described in FIG. 10, the levels of hFIX expression (ng/mL, median+/−SD) were measured for each group, starting on day 42 (one day before administration of AAV8-hFIX) and up to day 64.
In the experiment described in Example 1, despite the strong inhibition of anti-AAV antibody formation observed in most of the mice, 4 out of 10 dasatinib-treated animals started to develop anti-AAV8 IgG before re-dosing (FIG. 3C, days 15-21). […]
The inhibition of antibody formation to AAV8 correlated with the improvement of hFIX transgene expression after re-dosing, showing efficient transduction by the second AAV8(FIG. 10). Expression of hFIX was inversely correlated with the IgG and IgM titers measured on day 42 before re-dosing.

[2] = test system: C57B1/6 mice; experiment: anti-AAV8 IgM and IgG titers (ELISA on empty AAV8 capsids) after rAAV8 administration in mice; format: in vivo
Protocol: FIG. 1. rAAV8 readministration in mice and Dasatinib treatment. C57B1/6 mice were intravenously dosed on study day 1 with a rAAV8 encoding the hSEAP (human secreted alkaline phosphatase) at the dose of 1E12 vg/kg. On study day 22, they received a second rAAV8 encoding hFIX (human Factor IX) at the dose of 5E13 vg/kg. […] Group 2 (immunized mice, n=10) received both rAAV8 injections. Group 3 mice (n=10) received the two rAAV8 injections and were treated by oral gavage with 50 mg/kg dasatinib twice per day for 7 days starting on the day of first rAAV8 dosing. Blood samples were collected one day before and every 7 days after the first rAAV8 treatment.
(§1) FIGS. 2A-2C. Effects of dasatinib treatment on anti-AAV8 IgM titers. Serum was isolated from blood collected on study days 0, 8, 15, 21, 29 and 36 (FIG. 1) and anti-AA V8 IgM measured by ELISA, performed on immobilized empty AAV8 capsids. IgM antibody titers were determined by ELISA OD values of serial dilutions (1:10 and 7-step serial dilution 1:3). For the determination of mean background level, readouts were pooled from all mouse groups at day 0. The positivity threshold is represented by the dotted line. The kinetics of anti-AAV8 IgM antibody titers is shown for each mouse group (FIGS. 2A-2C). The empty circles represent titers under the threshold, and crossed circles represent titers above the threshold.
as §1, with “FIGS. 3A-3C.” for “FIGS. 2A-2C.”, “anti-AAV8 IgG” for “anti-AAV8 IgM”, “and anti-AAV8 IgG” for “and anti-AA V8 IgM”, “capsids. IgG” for “capsids. IgM”, “of anti-AA V8 IgG” for “of anti-AAV8 IgM”, “(FIGS. 3A-3C).” for “(FIGS. 2A-2C).”
To assess whether dasatinib could efficiently prevent anti-AAV antibody formation after rAAV administration and allow efficient re-administration of rAAV, a study was conducted in mice (FIG. 1). Groups of C57B1/6 mice were intravenously dosed with a first rAAV8 encoding hSEAP (human secreted alkaline phosphatase, under control of a CMV promoter) at the dose of 1E12vg/kg on study day 1. On study day 22, they were dosed with a second rAAV8 encoding hFIX (human Factor IX, under control of a CMV promoter) at the dose of 5E13 vg/kg. […] Group 3 mice were treated with Dasatinib at the dose of 50 mg/kg by oral gavage twice per day for 7 days, starting on the day of first rAAV8 dosing. […]

Cc1nc(Nc2ncc(C(=O)Nc3c(C)cccc3Cl)s2)cc(N2CCN(CCO)CC2)n1 [dasatinib, N-(2-chloro-6-methylphenyl)-2-[[6-[4-(2-hydroxyethyl)-1-piperazinyl]-2-methyl-4-pyrimidinyl]amino]-5-thiazole carboxamide monohydrate]
expression of hFIX, 2-week treatment compared with 1-week treatment ([1]; Group 4 (2 weeks) vs Group 3 (1 week), after AAV8-FactorIX 3e13 vg/kg on day 43): higher
hFIX levels in mice that remained IgG-negative on day 42 ([1]; day 64, dasatinib-treated mice): in the range of those measured in the non-immunized control Group 1
anti-AAV8 IgG titers compared with immunized control Group 2 ([2]; Group 3, 50 mg/kg oral gavage twice per day for 7 days): drastically reduced
anti-AAV8 IgM in serum versus positivity threshold ([2]; Group 3, 50 mg/kg oral gavage twice per day for 7 days from first rAAV8 dosing, until administration of second rAAV8 (day 22)): remained underthe IgM positivity threshold
mice above the anti-AAV8 IgG positivity threshold ([2]; Group 3, study day 21, 50 mg/kg oral twice per day for 7 days): 4/10
anti-AAV8 IgG titers after rAAV8 re-administration ([2]; day 36, two weeks after rAAV8 re-administration): comparable in all mouse groups
